As a reminder, the LC50 is the concentration lethal to half of the exposed cells or organisms. In general, inhibition refers to the percentage by which the read-out fell short of the control.

SMILES strings stand for the structures. Values after ≈ are worked out from the molar mass of the structure shown.

For assay [1], the system named is Spodoptera littoralis. Kind of assay: Insecticidal activity in Spodoptera littoralis assessed as inhibition of larval growth after 6 days by chronic feeding experiment. Format: functional, organism-based.
The test system of assay [2] is Spodoptera littoralis. Nature of the assay: Insecticidal activity in Spodoptera littoralis assessed as inhibition of larval growth at 530 ppm after 6 days by chronic feeding experiment. The settings on record: 144 h. It counts as functional.

For `CC1=C2C[C@H](C(C)(C)O)CC[C@H](C)[C@@H]2CC1=O` [HYDROXYCOLORENONE], the EC50 with Spodoptera littoralis [1] is listed as 8.8 ppm. Also, in the assay with Spodoptera littoralis [1] (Spodoptera littoralis, 144 h), the 50% lethal concentration (LC50) stood at 453 µg/mL (≈ 1920 µM). The inhibition at 530 ppm in the assay with Spodoptera littoralis [2] was 90%.

For the origin of these results see ChEMBL document CHEMBL1146402, “New Oxygenated Sesquiterpenes from the Indonesian Soft Coral Nephthea chabrolii” (J Nat Prod, 1997).
